Laboratory results reported in US20120076859A1, “Targeted Lung Delivery of Citrulline and/or Another Nitric Oxide Precursor and a Method for Treatment of Pulmonary Deficiency of Nitric Oxide in Cystic Fibrosis and Other Pulmonary Diseases” (ACTIVAERO GMBH, priority 2010, published 2012).
Values belong to the molecule of their own block, whether it stands above or below them.

Experiments:
[1] = Storage stability of ready to use formulation in LDPE vials; assay type: physicochemical; settings: room temperature; LDPE vials covered with aluminum overwrap
Procedure: In alternative, the liquid form of the highly concentrated citrulline or another nitric oxide precursor may also be conveniently supplied as a ready to use formulation stored and supplied in 1 mL “Blow-fill-Seal” vial, made of plastic polyethylene material, such as low density polyethylene (LDPE). The selected material for such ready to use formulation prevents absorption of the active component onto the plastic walls of the vial, which is a common occurrence with other plastic materials. The 1 mL fill volume of the vial provides an exact amount of active component that is safe and efficacious for the patient convenience provided, of course, that the therapeutically effective amount of the active component can be supplied in 1 mL dilution. In the above described type of vials covered with an aluminum overwrap, citrulline or nitric oxide precursors for inhalation are stable for at least 9 months and 12 months, respectively, at room temperature. There is no loss of strength under these conditions. At accelerated conditions where the vials are exposed to a temperature of 40° C. and 75% relative humidity, all formulations for extended shelf-life will be shown to retain their full activity for at least 6 months and preferably or one year.

[2] = test system: exhaled nitric oxide; settings: inhaled L-arginine; healthy and asthmatic subjects; cited from earlier work
[3] = test system: exhaled nitric oxide / pulmonary function; settings: cystic fibrosis patients, cited from earlier work
[4] = single oral dose; cystic fibrosis and healthy subjects; cited from earlier work
[5] = inhalation of arginine solution; cystic fibrosis patients; cited from earlier work
[6] = test system: isolated lungs of chronically hypoxic newborn pigs; settings: perfusion of isolated lungs; cited from earlier work

stability (shelf-life) [1]: at least 9 months
Compound: NC(=O)NCCC[C@H](N)C(=O)O [citrulline, L-(+)-2-amino-5-ureidovaleric acid]

Compound: N=C(N)NCCC[C@H](N)C(=O)O [L-arginine]
exhaled nitric oxide [2]: increased exhaled nitric oxide in a dose-dependent fashion | time of maximum effect on exhaled nitric oxide [2]: 60 min | plasma amino acid concentration of L-arginine ([3]; after single inhalation): did not change significantly over time | FEV1 ([3]; single inhalation): sustained improvement of FEV1 | exhaled nitric oxide concentrations ([3]; single inhalation): significantly increasing exhaled nitric oxide concentrations | plasma L-arginine concentration [4]: significant increase of plasma L-arginine concentration | adverse effects of inhalation therapy [5]: cough, airway inflammation and severe deterioration of the patients general conditions | nitric oxide production [6]: increase of nitric oxide production
